The values that follow come from patent publication US20100260671A1, “COMPOUNDS AND METHODS FOR THE DIAGNOSIS AND TREATMENT OF AMYLOID ASSOCIATED DISEASES” (THE REGENTS OF THE UNIVERSITY OF CALIFORNIA, priority 2007, published 2010).

Entries after “also recorded” stand apart in the source; their conditions may differ.

The target in series [1] is T1, Aβ(1-40) ion channel activity (Homo sapiens, UniProt P05067).
T1 construct: Aβ(1-40) (Biopeptide, Inc.) powder was initially solubilized lyophilized in DiH2O at 1 mg/mL; purchased Biopeptide, Inc
T1 sequence (P05067 672-711 limits assumed): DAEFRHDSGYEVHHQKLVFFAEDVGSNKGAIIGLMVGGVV
The series can be described thus: Planar lipid bilayer Aβ ion channel assay, Method 2 (POPE:DOPS, Aβ proteoliposomes). The class given is biochemical. Conditions: for Small molecule concentration at which no ion channel activity is observed: Method 2, added after observing events. Here is the method: Method 2: Planar lipid bilayer was formed by the so-called “painting technique” over a 250-μm aperture on a Delrin cup (Warner Instruments) separating two compartments (cis and trans) of a bilayer setup. A lipid mixture of 1-palmitoyl-2-oleoyl phosphatidyletanolamine (POPE) (Avanti Polar Lipids) and Dioleoylphosphatidylserine (DOPS) (Avanti Polar Lipids), 1:1 at 10 mg mL-1 in heptane was applied on the aperture which is pre-treated with 2 μL of the same lipid mixture in hexane on each side. Both compartments were filled symmetrically with 800 μL of 70 mM KCl, […]. A glass pipette with a smooth bent tip was used to blow air bubble under the aperture to thin out the droplet of lipid to obtain a planar lipid bilayer (with capacitance >80 pF). Membrane stability was determined by applying ±100 mV for 10 minutes and monitoring a constant current baseline without instabilities in current. The capacitance of the membrane was monitored throughout the experiment.
Monomerization of Aβ: Aβ powder (Biopeptide, Inc.) was initially solubilized in Hexafluoroisopropanol (HFIP) at 1 mM for 21 hours in a glass vial, with 3 times of vortexing throughout the incubation period. The solution was diluted with cold nanopure water (2:1 H2O:HFIP) vortexed, fractionated in desire amounts, and immediately frozon in a CO2/acetone bath. Each fraction was covered with parafilm that was punctured twice to allow solvent vapors to escape. The fractions were lyophilized for 2 days to obtain monomerized Aβ.
Preparation of Aβ proteoliposomes: Aβ(1-40) (Biopeptide, Inc.) powder was initially solubilized lyophilized in DiH2O at 1 mg/mL and stored in −80° C. before use. 20 μL of DOPS was evaporated in CHCl3 (10 mg mL^−1) under vacuum and formed liposomes using hydration method. After obtaining a thin film of lipid, 30 μL of 1M Potassium Aspartate pH 7.2 was added, followed by 5 minutes of bath sonication. The liposome suspension was then mixed with 20 μL of Aβ (1-40) solution (1 mg/mL) and sonicated for 5 minutes.
In order to promote fusion of Aβ proteoliposomes into the bilayer, an ionic gradient of 370 mM KCl was used on the cis side (the side of proteoliposome addition) and 70 mM KCl on the trans side of the bilayer setup. 10-20 μL of the Aβ proteoliposome solution was added to the cis compartment and stirred vigorously for 5-10 minutes. The molecules of interest can be tested by addition to the chamber after observing events.

Series [2] has as its target T2, Aβ(1-42) ion channel activity (Homo sapiens, UniProt P05067).
T2 construct: Aβ(1-42) (Biopeptides) was initially dissolved in deionized water at 1 mg/ml (221.5 μM); purchased Biopeptide, Inc.
Nature of the series: Planar lipid bilayer Aβ ion channel assay, Method 1 (POPE:POPG, pre-incubated Aβ). The class given is biochemical. To be noted: for membrane lasts: Method 1, incubated at 4:1 with Aβ, average of experiments. Here is the method: […] The Aβ sample was pre-incubated at RT for 12-18 hours. The molecules of interest can be pre-incubated with Aβ sample at various concentrations.
Bilayer set-up and recording system: Planar lipid bilayer was formed by the so-called “painting technique” over a 250-μm aperture on a Delrin cup (Warner Instruments) separating two compartments (cis and trans) of a bilayer setup. A lipid mixture of 1-palmitoyl-2-oleoyl phosphatidyletanolamine (POPE): palmitoyl-oleyl-phosphatidylglycerol (POPG) (Avanti Polar Lipids), 1:1 at 25 mg mL-1 in heptane was applied to the aperture which is pre-treated with 2 μL of the same lipid mixture (20 mg mL^−1) in hexane on each side. The recording buffer in cis compartment is 100 mM K2HPO4/KH2PO4 pH 7.4, while in the trans compartment a buffer with pre-incubated Aβ overnight was used.

Series [3] concerns the target Aβ fibrils (binding of anti-Aβ IgG clone 6E10) (Homo sapiens, UniProt P05067). Nature of the series: ELISA-based assay: inhibition of anti-Aβ IgG (clone 6E10) binding to Aβ fibrils. Conditions: control experiments, FIG. 2 panel c.
Another series has as its target Aβ fibrils (anti-Aβ IgG) (Homo sapiens, UniProt P05067). Conditions: for Emax: read-out: % Max Inhib.
Another series has as its target T3, Aβ(1-42) ion channels (Homo sapiens, UniProt P05067).
T3 construct: Aβ(1-42) (Biopeptides) was initially dissolved in deionized water at 1 mg/ml (221.5 μM); purchased Biopeptide, Inc.
Nature of the series: Functional ion channel inhibition assay, planar lipid bilayer (Example 7). The class given is biochemical. To be noted: for Inhibition of de-novo Aβ ion channel formation: molar ratio to Aβ 1:1, added at the same time as 37 μM Aβ; for Rank of inhibitory effect on Aβ ion channel activity: repeated experiments. The text has this: Functional Ion Channel Inhibition Assays: A functional assay has been developed to investigate the inhibition of neurotoxic ion channel activity of Aβ peptides in reconstituted membrane bilayers and in aneuronal cell line by small molecules. The assay is based on ultra-sensitive electrophysiological recordings of the ion channel activity of Aβ. This ion channel-activity assay is designed to determine whether small molecules that bind to Aβ fibrils will inhibit ion channel activity. Compounds that inhibit ion channel activity are likely candidates for therapeutics and diagnostic agents for amyloid-associated diseases. This Example presents results that nicotine, tannic acid, and Congo Red are able to inhibit the ion channel activity of Aβ oligomers in planar lipid bilayers.
1. The lipid mixture was made from POPE:POPG (Avanti Polar Lipids) at 25 mg/ml (1:1) in Heptane. The pretreatment lipid solution was POPE:POPG 20 mg/mL in Hexane.
2. The bilayer was formed in classic bilayer cups and chamber (Warner Instruments). This 2-part system consists of a black Delrin chamber and a cup of Delrin. Cups and chambers are designed such that addition of equal volumes to the cup and chamber (cis and trans sides) results in a balanced solution height, minimizing any pressure gradients across the bilayer membrane.
3. The bilayer was formed over a 250 μm hole in a partition separating two Delrin compartments, the so called “painting technique.” First, droplets of pretreatment lipid solution were placed on both sides of the hole, using 100 uL-Hamilton syringe. Once the droplet of hexane evaporates, both chambers (cis and trans) were symmetrically filled with 900 uL of buffer solution, 100 mM KH2PO4/K2HPO4 pH 7.4, at room temperature.
4. When the bilayer set-up was already in place with Ag/AgCl electrodes in Faraday cage (a bilayer workstation which provides critical shielding of electromagnetic interference from outside sources and isolate vibration), the lipid solution (POPE:POPG in Heptane) was painted directly over the hole by using a thin paintbrush. A researcher gently blew underneath the hole by using the Pasteur pipette to thin out the bilayer until the appropriate capacitance was obtained (80-120 pF).
5. A voltage of ±100 mV was applied for at least 10 minutes to test stability of lipid bilayer.
Aβ(1-42) (Biopeptides) was initially dissolved in deionized water at 1 mg/ml (221.5 μM), and stored at −20° C. The stock solution is aliquotted to sufficient amount for each time use (90 uL). After the stable bilayer is constituted, the Aβ(1-42) solution was added to the trans side of the chamber to obtain a final concentration of 37 μM. The solution was mixed well in the chamber under stirring for 5 minutes
Congo Red (Sigma) was dissolved in DI Water to achieve a concentration of 2.5 mg/ml (3.58 mM) as a stock solution. (−) Nicotine Hemasulfate (Sigma) was diluted to 1.89 mM in DI Water. Tannic Acid (Riedel-de Haen) was diluted to 20 mM in DI Water.
The solution of inhibitory molecule was added to cis and trans sides to make a desired final concentration (1:1 molar ratio) at the same time as Aβ.
For Nicotine, the solution was added after observing current activities of Aβ to obtain 1:1, 1:2, 1:3, 1:4 molar ratio.

The nature of series [4]: Octanol/PBS partition coefficient (log P), experimental. To be noted: for logP: octanol/PBS buffer.
Description: (§1) 15 μM solutions of small molecule are prepared in 5 mL PBS buffer. 5 mL of octanol is added to each aqueous solution of small molecule and the biphasic layers are mixed by rapid vortexing. The mixture is then centrifuged at 250×g to facilitate the formation of two clear layers. The layers are separated and the absolute concentrations of small molecules in each layer are quantified by measuring the absorbance of the layers at the appropriate nm for each compound. The molar extinction coefficient of the compound in octanol and PBS buffer is determined by comparison to standard calibration curves of known quantities of small molecules dissolved in octanol and PBS buffer. The partition coefficient is expressed as logarithm of the ratio of the concentration in octanol divided by the concentration in PBS (i.e., log P).

T3 sequence (P05067 672-713 limits assumed): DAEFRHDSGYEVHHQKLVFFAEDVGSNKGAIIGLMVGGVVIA
Sequence of Aβ fibrils (anti-Aβ IgG) (P05067 672-713 limits assumed): as above
T2 sequence (P05067 672-713 limits assumed): as above
Sequence of Aβ fibrils (binding of anti-Aβ IgG clone 6E10) (P05067 672-713 limits assumed): as above
Description for physchem: as §1

For the compound `CNCCc1ccc(O)c(O)c1.Cl` [N-methyl dopamine hydrochloride], in series [1], the “Small molecule concentration at which no ion channel activity is observed” value was “Observe no ion channel activity at 450 μM small”.
With `O=C([O-])c1ccccc1O.[Na+]` [Salicylic Acid sodium salt], the “Observe no ion channel activity in (experiments out of total)” value (“Observe no ion channel activity” for short) in series [2] (Method 1, incubated at 4:1) is reported as “Observe no ion channel activity in 3 out of 3”. In addition, the membrane lasts entry in series [2] is given as “(incubated at 4:1), membrane lasts ~45 minutes”.
`O=S(=O)([O-])c1ccc(O)c2ccccc12.[Na+]` [1-naphthol-4-sulfonate]: the “Inhibition of the interaction between the IgGs and Aβ fibrils (control compound)” value in series [3] is recorded as “No inhibition”.
For the compound `CN1CCC[C@H]1COC(=O)c1cncc(Br)c1` [Compound 14], at Aβ fibrils (anti-Aβ IgG) (anti-Aβ IgG-Aβ fibril binding), the “Conc at Max Inhib.” value came to 50 mM. Also, at Aβ fibrils (anti-Aβ IgG), the Emax was 68%.
Turning to `O=C(OC[C@H]1O[C@@H](OC(=O)c2cc(O)c(O)c(OC(=O)c3cc(O)c(O)c(O)c3)c2)[C@H](OC(=O)c2cc(O)c(O)c(OC(=O)c3cc(O)c(O)c(O)c3)c2)[C@@H](OC(=O)c2cc(O)c(O)c(OC(=O)c3cc(O)c(O)c(O)c3)c2)[C@@H]1OC(=O)c1cc(O)c(O)c(OC(=O)c2cc(O)c(O)c(O)c2)c1)c1cc(O)c(O)c(OC(=O)c2cc(O)c(O)c(O)c2)c1` [Tannic Acid], at Aβ(1-42) ion channels, the “Inhibition of de-novo Aβ ion channel formation” value is recorded as “inhibited ion channel activity of Aβ”. Further, in series [2] (Method 1, incubated at 4:1), the “Observe no ion channel activity” value is recorded as “Observe no ion channel activity in 3 out of 5”. The membrane lasts result in series [2] is listed as “(incubated at 4:1), membrane lasts ~75 minutes”.
Turning to `NC[C@H](O)c1ccc(O)c(O)c1.O.O=C(O)C(O)C(O)C(=O)O` [L-(−)-norepinephrine (+)-bitartrate salt monohydrate], the “Small molecule concentration at which no ion channel activity is observed” value in series [1] is given as “Observe no ion channel activity at 50 μM small”.
What is called logP is the decadic logarithm of the partition coefficient of the neutral form, usually between octanol and water. Low values mean lower lipophilicity, high ones higher lipophilicity. As for `OCCOCCOCCOCCN1CCCC1c1cccnc1` (stereo not shown) [Compound 10, 2-(2-(2-(2-(2-(pyridin-3yl)pyrrolidin-1-yl)ethoxy)ethoxy)ethoxy)-ethanol], the “Conc at Max Inhib.” value on Aβ fibrils (anti-Aβ IgG) (anti-Aβ IgG-Aβ fibril binding) is recorded as 100 mM. For the same compound, the Emax at Aβ fibrils (anti-Aβ IgG) amounted to 81%. The logP in series [4] is -0.41 ± 0.05.
On to `Nc1c(/N=N/c2ccc(-c3ccc(/N=N/c4cc(S(=O)(=O)O)c5ccccc5c4N)cc3)cc2)cc(S(=O)(=O)O)c2ccccc12` [Congo Red], for which the “Rank of inhibitory effect on Aβ ion channel activity” value at Aβ(1-42) ion channels is “then by Congo Red”.
In the case of `Cl.NCCc1ccc(O)c(O)c1` [Dopamine HCl], in series [2] (Method 1, incubated at 4:1), the “Observe no ion channel activity” value was “Observe no ion channel activity in 3 out of 4”. In series [2], the membrane lasts result is listed as “(incubated at 4:1), membrane lasts ~70 minutes”.
As to `N[C@@H](Cc1ccc(O)c(O)c1)C(=O)O` [L-DOPA], the Membrane observation result in series [1] (Method 2, 50 μM small molecule) is “molecule, membrane broke”. For the same compound, the “Small molecule concentration at which no ion channel activity is observed” value in series [1] is “Observe no ion channel activity at 50 μM small”.
For `COc1cc(/C=C/C(=O)CC(=O)/C=C/c2ccc(O)c(OC)c2)ccc1O` [Curcumin], in series [2] (Method 1, incubated at 2:1), the “Observe no ion channel activity” value was “Observe no ion channel activity in 3 out of 6” and the “membrane lasts / membrane stability” value was “(incubated at 2:1), membrane lasts ~50 minutes”.
Turning to `CN1CCCC1c1cncc(Br)c1` (stereo not shown) [Compound 8, 5-Bromonicotine], at Aβ fibrils (anti-Aβ IgG) (anti-Aβ IgG-Aβ fibril binding), the “Conc at Max Inhib.” value worked out at 700 mM. In addition, the Emax at Aβ fibrils (anti-Aβ IgG) amounted to 83%. Also, the logP in “physchem” came out at 2.1 ± 0.3.
As for `CN1CCCC1c1cccnc1` (single isomer, unassigned; (-)) [(−)-Nicotine], the “Time to almost complete disruption of preformed ion channels” value at Aβ(1-42) ion channels (4-fold molar excess with respect to Aβ) is ≤ 10 min. Moreover, the “Disruption of Aβ ion channel activity on addition at increasing concentration” value on Aβ(1-42) ion channels (added after observing Aβ current, 1:1 to 1:4 molar ratio, 37 μM Aβ) was “concentration-dependent disruption of Aβ ion channel activity”. Moreover, the “Disruption of preformed Aβ ion channels” value at Aβ(1-42) ion channels (molar ratio nicotine to Aβ 4:1) was “disrupted preformed Aβ channels almost completely”. Besides, at Aβ(1-42) ion channels, the “Inhibition of de-novo Aβ ion channel formation” value is reported as “sufficient to inhibit the de-novo formation of Aβ ion channels; also recorded: did not result in ion channel activity during the entire test period (90 min)” and the “Rank of inhibitory effect on Aβ ion channel activity” value was “strongest inhibitory effect”. Also, on Aβ fibrils (anti-Aβ IgG) (anti-Aβ IgG-Aβ fibril binding), the “% Max Inhib.” value is 84% and the “Conc at Max Inhib.” value was 1,000 mM. Moreover, in series [2] (Method 1, incubated at 2:1), the “membrane lasts / membrane stability” value is given as “(incubated at 2:1), unstable membrane”. The “Observe no ion channel activity” value in series [2] (Method 1, incubated at 4:1) was “Observe no ion channel activity in 4 out of 4”. The membrane lasts entry in series [2] is “(incubated at 4:1), membrane lasts ~70 minutes”. The “LogP expt'l” value in series [4] (octanol/PBS) amounted to 0.20 ± 0.01.
Regarding `CN1CCC[C@H]1COC(=O)c1cccnc1` [Compound 13, (s)-1-Methylpyrrolidine-2-methyl nicotinate], on Aβ fibrils (anti-Aβ IgG) (anti-Aβ IgG-Aβ fibril binding), the “Conc at Max Inhib.” value turned out to be 50 mM. Moreover, the Emax at Aβ fibrils (anti-Aβ IgG) worked out at 54%. Also, the logP in series [4] was -0.5 ± 0.02.
The matching figures for `c1cncc(C2CCCN2)c1` (stereo not shown) [Compound 7, Nornicotine]: 700 mM, 98% and -0.93 ± 0.04.
Taken in the same sequence, the figures for `CN1CCCC1COC(=O)c1ccccn1` (stereo not shown) [Compound 15, (s)-1-Methylpyrrolidine-2-methyl picolinate] were 50 mM, 51% and 0.69 ± 0.08.
